Assay results published in the supplement of paper PMC6045584.
± gives the standard deviation of the averaged measurements.

Key:
2-METHOXYESTRADIOL = compound: COc1cc2c(cc1O)CC[C@@H]1[C@@H]2CC[C@]2(C)[C@@H](O)CC[C@@H]12 [2-METHOXYESTRADIOL]; test: area under dose-response curve of surviving fraction (unscaled, Aref=0) (surviving fraction x log10(nM)); higher = more resistant; conditions: exposure time: 5 days; dose range 0.5-1000 nM
Method in brief: (§1)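 Surviving fractions were fitted by 3-parameter logistic regression in the drc R package to give dose-response survival curves. They came from tumour cell lines treated for five days with eight inhibitor concentrations from 0.5 to 1000 nM and read by CellTiter-Glo luminescence against DMSO-only wells. The area under the curve is the unscaled activity area. It was calculated over log10 dose with Aref = 0.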

RESVERATROL = compound: Oc1ccc(/C=C/c2cc(O)cc(O)c2)cc1 [RESVERATROL]; test: as above; conditions: exposure time: 5 days; dose range 0.5-1000 nM
Method in brief: as §1

NUTLIN3 = compound: COc1ccc(C2=N[C@@H](c3ccc(Cl)cc3)[C@@H](c3ccc(Cl)cc3)N2C(=O)N2CCNC(=O)C2)c(OC(C)C)c1 [NUTLIN3]; test: as above; conditions: exposure time: 5 days; dose range 0.5-1000 nM
Method in brief: as §1

DOXORUBICIN = compound: COc1cccc2c1C(=O)c1c(O)c3c(c(O)c1C2=O)C[C@@](O)(C(=O)CO)C[C@@H]3O[C@H]1C[C@H](N)[C@H](O)[C@H](C)O1 [DOXORUBICIN]; test: as above; conditions: exposure time: 5 days; dose range 0.5-1000 nM
Method in brief: as §1

FLAVOPIRIDOL = compound: CN1CC[C@H](c2c(O)cc(O)c3c(=O)cc(-c4ccccc4Cl)oc23)[C@H](O)C1 [FLAVOPIRIDOL]; test: as above; conditions: exposure time: 5 days; dose range 0.5-1000 nM
Method in brief: as §1

17-AAG = compound: C=CCNC1=C2C[C@@H](C)C[C@H](OC)[C@H](O)[C@@H](C)/C=C(\C)[C@H](OC(N)=O)[C@@H](OC)/C=C\C=C(/C)C(=O)NC(=CC1=O)C2=O [17-AAG]; test: as above; conditions: exposure time: 5 days; dose range 0.5-1000 nM
Method in brief: as §1

VISMODEGIB = compound: CS(=O)(=O)c1ccc(C(=O)Nc2ccc(Cl)c(-c3ccccn3)c2)c(Cl)c1 [VISMODEGIB]; test: as above; conditions: exposure time: 5 days; dose range 0.5-1000 nM
Method in brief: as §1

SALINOMYCIN = compound: CC[C@@H](C(=O)[C@@H](C)[C@@H](O)[C@H](C)[C@@H]1O[C@@H]([C@@H](CC)C(=O)O)CC[C@@H]1C)[C@H]1O[C@]2(C=C[C@@H](O)[C@]3(CC[C@@](C)([C@H]4CC[C@](O)(CC)[C@H](C)O4)O3)O2)[C@H](C)C[C@@H]1C [SALINOMYCIN]; test: as above; conditions: exposure time: 5 days; dose range 0.5-1000 nM
Method in brief: as §1

DECITABINE [1] = compound: T1, Nc1ncn([C@H]2C[C@H](O)[C@@H](CO)O2)c(=O)n1 [DECITABINE]; test: as above; conditions: exposure time: 5 days; dose range 0.5-1000 nM
Method in brief: as §1

[2] = compound: CCN(CC)CCCCNc1ncc2cc(-c3cc(OC)cc(OC)c3)c(NC(=O)NC(C)(C)C)nc2n1; test: as above; conditions: exposure time: 5 days; dose range 0.5-1000 nM
Method in brief: as §1

ABT-737 = compound: CN(C)CC[C@H](CSc1ccccc1)Nc1ccc(S(=O)(=O)NC(=O)c2ccc(N3CCN(Cc4ccccc4-c4ccc(Cl)cc4)CC3)cc2)cc1[N+](=O)[O-] [ABT-737]; test: as above; conditions: exposure time: 5 days; dose range 0.5-1000 nM
Method in brief: as §1

DECITABINE [3] = compound: T1, DECITABINE; test: surviving fraction relative to DMSO-only wells; higher = less growth inhibition; conditions: exposure time: 5 days
Method in brief: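 At 250–500 cells per well in 384-well plates, log-phase tumour cell lines were seeded and, 24 hours on, exposed continuously for five days to inhibitors at 0.5, 1, 5, 10, 50, 100, 500 and 1000 nM. Viability readout was CellTiter-Glo luminescence, reported as surviving fraction normalised to the median of DMSO-only wells.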

LAPATINIB = compound: CS(=O)(=O)CCNCc1ccc(-c2ccc3ncnc(Nc4ccc(OCc5cccc(F)c5)c(Cl)c4)c3c2)o1 [LAPATINIB]; test: area under dose-response curve of surviving fraction (unscaled, Aref=0) (surviving fraction x log10(nM)); higher = more resistant; conditions: exposure time: 5 days; dose range 0.5-1000 nM
Method in brief: as §1

With SNU475 LIVER the “area under dose-response curve” value (2-METHOXYESTRADIOL) was 3.26, the “area under dose-response curve” value (RESVERATROL) was 3.3 and the “area under dose-response curve” value (NUTLIN3) was 3.32. The “area under dose-response curve” value (DOXORUBICIN) was 2.22, the “area under dose-response curve” value (FLAVOPIRIDOL) was 2.33 and the “area under dose-response curve” value (17-AAG) was 1.66. The “area under dose-response curve” value (VISMODEGIB) was 3.06, the “area under dose-response curve” value (SALINOMYCIN) was 2.58 and the “area under dose-response curve” value (DECITABINE [1]) was 3.4. The “area under dose-response curve” value [2] was 3.01, the “area under dose-response curve” value (ABT-737) was 3.39 and the surviving fraction (DECITABINE [3]; 0.5 nM) was 1.06 ± 0.024. The surviving fraction (DECITABINE [3]; 1 nM) was 1.05 ± 0.024, the surviving fraction (DECITABINE [3]; 5 nM) was 1.051 ± 0.0036 and the surviving fraction (DECITABINE [3]; 10 nM) was 1.02 ± 0.026. The surviving fraction (DECITABINE [3]; 50 nM) was 1.03 ± 0.017, the surviving fraction (DECITABINE [3]; 100 nM) was 0.984 ± 0.038 and the surviving fraction (DECITABINE [3]; 500 nM) was 1.03 ± 0.036. It also gave a surviving fraction (DECITABINE [3]; 1000 nM) of 1.03 ± 0.032.

In the case of SUM44 BREAST, the “area under dose-response curve” value (RESVERATROL) is reported as 3.94, the “area under dose-response curve” value (NUTLIN3) is reported as 3.26 and the “area under dose-response curve” value (DOXORUBICIN) is reported as 2.59. The “area under dose-response curve” value (LAPATINIB) was 3.72, the “area under dose-response curve” value (FLAVOPIRIDOL) was 2.36 and the “area under dose-response curve” value (17-AAG) was 2.02. The “area under dose-response curve” value (VISMODEGIB) was 3.11, the “area under dose-response curve” value (SALINOMYCIN) was 3.22 and the “area under dose-response curve” value (DECITABINE [1]) was 3.87. For the same test system, the “area under dose-response curve” value [2] was 3.27, the surviving fraction (DECITABINE [3]; 0.5 nM) was 1.15 ± 0.17 and the surviving fraction (DECITABINE [3]; 1 nM) was 1.1 ± 0.16. It also gave a surviving fraction (DECITABINE [3]; 5 nM) of 1.17 ± 0.23, a surviving fraction (DECITABINE [3]; 10 nM) of 1.14 ± 0.17 and a surviving fraction (DECITABINE [3]; 50 nM) of 1.31 ± 0.26. For the same test system, the surviving fraction (DECITABINE [3]; 100 nM) was 1.23 ± 0.15, the surviving fraction (DECITABINE [3]; 500 nM) was 1.13 ± 0.12 and the surviving fraction (DECITABINE [3]; 1000 nM) was 1.15 ± 0.069.

SUM149.B1*.S BREAST was tested, and the “area under dose-response curve” value (2-METHOXYESTRADIOL) was 3.49, the “area under dose-response curve” value (RESVERATROL) was 3.7 and the “area under dose-response curve” value (NUTLIN3) was 3.61. The “area under dose-response curve” value (DOXORUBICIN) was 2, the “area under dose-response curve” value (FLAVOPIRIDOL) was 2.37 and the “area under dose-response curve” value (17-AAG) was 1.93. For the same test system, the “area under dose-response curve” value (SALINOMYCIN) was 2.9, the “area under dose-response curve” value (ABT-737) was 3.79 and the surviving fraction (DECITABINE [3]; 0.5 nM) was 1.09 ± 0.037. The surviving fraction (DECITABINE [3]; 1 nM) was 1.03 ± 0.044, the surviving fraction (DECITABINE [3]; 5 nM) was 1.05 ± 0.06 and the surviving fraction (DECITABINE [3]; 10 nM) was 0.98 ± 0.058. For the same test system, the surviving fraction (DECITABINE [3]; 50 nM) was 0.749 ± 0.062, the surviving fraction (DECITABINE [3]; 100 nM) was 0.66 ± 0.062 and the surviving fraction (DECITABINE [3]; 500 nM) was 0.553 ± 0.043. The surviving fraction (DECITABINE [3]; 1000 nM) was 0.496 ± 0.061.

In the case of SUM159 BREAST, the “area under dose-response curve” value (2-METHOXYESTRADIOL) is reported as 3.24, the “area under dose-response curve” value (RESVERATROL) is reported as 3.53 and the “area under dose-response curve” value (NUTLIN3) is reported as 3.27. For the same test system, the “area under dose-response curve” value (DOXORUBICIN) was 1.84, the “area under dose-response curve” value (LAPATINIB) was 3.55 and the “area under dose-response curve” value (FLAVOPIRIDOL) was 2.38. The “area under dose-response curve” value (17-AAG) was 1.72, the “area under dose-response curve” value (SALINOMYCIN) was 2.31 and the “area under dose-response curve” value (DECITABINE [1]) was 3.48. For the same test system, the “area under dose-response curve” value [2] was 3.75, the surviving fraction (DECITABINE [3]; 0.5 nM) was 1.1 ± 0.024 and the surviving fraction (DECITABINE [3]; 1 nM) was 1.079 ± 0.0093. For the same test system, the surviving fraction (DECITABINE [3]; 5 nM) was 1.09 ± 0.023, the surviving fraction (DECITABINE [3]; 10 nM) was 1.06 ± 0.017 and the surviving fraction (DECITABINE [3]; 50 nM) was 1.05 ± 0.012. The surviving fraction (DECITABINE [3]; 100 nM) was 1.028 ± 0.004, the surviving fraction (DECITABINE [3]; 500 nM) was 1.03 ± 0.015 and the surviving fraction (DECITABINE [3]; 1000 nM) was 0.9957 ± 0.0076.

For U2OS BONE, the “area under dose-response curve” value (2-METHOXYESTRADIOL) was 3.08, the “area under dose-response curve” value (RESVERATROL) was 3.48 and the “area under dose-response curve” value (NUTLIN3) was 3.28. For the same test system, the “area under dose-response curve” value (DOXORUBICIN) was 1.98, the “area under dose-response curve” value (FLAVOPIRIDOL) was 2.2 and the “area under dose-response curve” value (17-AAG) was 2.13. For the same test system, the “area under dose-response curve” value (VISMODEGIB) was 3.48, the “area under dose-response curve” value (SALINOMYCIN) was 3.16 and the “area under dose-response curve” value (DECITABINE [1]) was 3.01. For the same test system, the “area under dose-response curve” value [2] was 3, the “area under dose-response curve” value (ABT-737) was 3.49 and the surviving fraction (DECITABINE [3]; 0.5 nM) was 1.02 ± 0.043. For the same test system, the surviving fraction (DECITABINE [3]; 1 nM) was 1.01 ± 0.052, the surviving fraction (DECITABINE [3]; 5 nM) was 1.04 ± 0.054 and the surviving fraction (DECITABINE [3]; 10 nM) was 1.01 ± 0.021. It also gave a surviving fraction (DECITABINE [3]; 50 nM) of 0.992 ± 0.029, a surviving fraction (DECITABINE [3]; 100 nM) of 0.902 ± 0.045 and a surviving fraction (DECITABINE [3]; 500 nM) of 0.679 ± 0.055. The surviving fraction (DECITABINE [3]; 1000 nM) was 0.699 ± 0.013.

With YAMATO SYNOVIAL the “area under dose-response curve” value (2-METHOXYESTRADIOL) was 3.05, the “area under dose-response curve” value (NUTLIN3) was 4.58 and the “area under dose-response curve” value (DOXORUBICIN) was 2.03. The “area under dose-response curve” value (LAPATINIB) was 4.08, the “area under dose-response curve” value (FLAVOPIRIDOL) was 2.38 and the “area under dose-response curve” value (17-AAG) was 2.65. The “area under dose-response curve” value (SALINOMYCIN) was 2.25, the “area under dose-response curve” value [2] was 3.96 and the “area under dose-response curve” value (ABT-737) was 4.34. It also gave a surviving fraction (DECITABINE [3]; 0.5 nM) of 1.26 ± 0.05, a surviving fraction (DECITABINE [3]; 1 nM) of 1.11 ± 0.081 and a surviving fraction (DECITABINE [3]; 5 nM) of 1.17 ± 0.086. The surviving fraction (DECITABINE [3]; 10 nM) was 0.995 ± 0.098, the surviving fraction (DECITABINE [3]; 50 nM) was 1.02 ± 0.081 and the surviving fraction (DECITABINE [3]; 100 nM) was 1.04 ± 0.034. The surviving fraction (DECITABINE [3]; 500 nM) was 0.907 ± 0.034 and the surviving fraction (DECITABINE [3]; 1000 nM) was 0.811 ± 0.035.
